Source: patent US20110129548A1, “Immunopotentiating Compositions Comprising Beta-1, 3/1, 6-D-Glucan and Uses Thereof” (BioAgra, LLC, priority 2006, published 2011)

Key:
[1] = tested on: blood cells (WBC, RBC, MON, PMN); assay: Effect of Vitamin D plus beta-1,3/1,6-D-glucan on blood cells (differential cell count); assay type: in vivo; conditions: rabbits, capsules for 9 weeks
Procedure: To determine the effect of Vitamin D plus beta-1,3/1,6-D-glucan (AGRASTIM®) on the immunocompetence of an animal, rabbits (10 per group) were given capsules of equal weight comprising 10 mg of beta-1,3/1,6-D-glucan (AGRASTIM®), 10 mg of beta-1,3/1,6-D-glucan (AGRASTIM®) plus 50 IU of Vitamin D, or 50 IU Vitamin D for 9 weeks. At the end of 9 weeks the number of white blood cells (WBCs), red blood cells (RBCs), mononuclear cells (MONs), and polymorphonuclear cells (PMNs) were determined by differential cell count.

[2] = tested on: macrophage cell line RAW264 cells; assay: Hydrogen peroxide production by RAW264 macrophages; assay type: cell-based, murine; conditions: 1 h; for Fluorescence: control 229.00 ± 4.54
Procedure: To determine hydrogen peroxide production, macrophage cell line RAW264 cells were plated into 96 well tissue culture plates and cultured until confluent in phenol red-free alpha-minimum essential medium, supplemented with 10% fetal bovine serum. Once confluence was reached, the media was removed, the cells were washed, and substrate and test substances were added. To insure cell number uniformity at confluence, cell numbers were determined in 8 wells; if the number of cells differed by more than 10% the plate was not used. Following an incubation period of exactly 1h the reaction was stopped and resulting fluorescence measured with an ELISA-reader at λmax, excitation=312 nm, λmax, emission=420 nm. Zymosan, the residue from a hot alcoholic extraction of yeast, and curdlan, a linear beta-1,3-D-glucan, were used as positive controls.

[3] = percent with the control set to 100

Substance	increase of PMNs [1] [%]	increase of WBCs above control [1]	increase of the number of RBCs [1]	MON [1, 3] [%]	PMN [1, 3] [%]	RBC [1, 3] [%]	WBC [1, 3] [%]	H2O2-Release ([2]; dose 10 μg/assay) [nmol]	Fluorescence ([2]; dose 10 μg/assay) [arbitrary units]	H2O2-Release ([2]; dose 50 μg/assay) [nmol]	Fluorescence ([2]; dose 50 μg/assay) [arbitrary units]
Vitamin D	29	no effect	neither beta-1,3/1,6-D-glucan alone nor Vitamin D had significant effects	83	129	84	100				
CURDLAN								0.76	254.00 ± 1.02	1.06	345.00 ± 6.48
